Results reported in ChEMBL document CHEMBL2331275, “Fluorescence study for selecting specific ligands toward HER2 receptor: an example of receptor fragment approach” (Eur J Med Chem, 2013).
Calls of active or inactive are those of the source. The rule behind the calls is not given here.

Target: Receptor tyrosine-protein kinase erbB-2 (Homo sapiens, UniProt P04626)
Assay: Binding affinity to synthetic peptide mimicking HER2 subdomain 4 (unknown origin) by fluorescence spectroscopic analysis

Sequence of Receptor tyrosine-protein kinase erbB-2 (P04626 whole entry): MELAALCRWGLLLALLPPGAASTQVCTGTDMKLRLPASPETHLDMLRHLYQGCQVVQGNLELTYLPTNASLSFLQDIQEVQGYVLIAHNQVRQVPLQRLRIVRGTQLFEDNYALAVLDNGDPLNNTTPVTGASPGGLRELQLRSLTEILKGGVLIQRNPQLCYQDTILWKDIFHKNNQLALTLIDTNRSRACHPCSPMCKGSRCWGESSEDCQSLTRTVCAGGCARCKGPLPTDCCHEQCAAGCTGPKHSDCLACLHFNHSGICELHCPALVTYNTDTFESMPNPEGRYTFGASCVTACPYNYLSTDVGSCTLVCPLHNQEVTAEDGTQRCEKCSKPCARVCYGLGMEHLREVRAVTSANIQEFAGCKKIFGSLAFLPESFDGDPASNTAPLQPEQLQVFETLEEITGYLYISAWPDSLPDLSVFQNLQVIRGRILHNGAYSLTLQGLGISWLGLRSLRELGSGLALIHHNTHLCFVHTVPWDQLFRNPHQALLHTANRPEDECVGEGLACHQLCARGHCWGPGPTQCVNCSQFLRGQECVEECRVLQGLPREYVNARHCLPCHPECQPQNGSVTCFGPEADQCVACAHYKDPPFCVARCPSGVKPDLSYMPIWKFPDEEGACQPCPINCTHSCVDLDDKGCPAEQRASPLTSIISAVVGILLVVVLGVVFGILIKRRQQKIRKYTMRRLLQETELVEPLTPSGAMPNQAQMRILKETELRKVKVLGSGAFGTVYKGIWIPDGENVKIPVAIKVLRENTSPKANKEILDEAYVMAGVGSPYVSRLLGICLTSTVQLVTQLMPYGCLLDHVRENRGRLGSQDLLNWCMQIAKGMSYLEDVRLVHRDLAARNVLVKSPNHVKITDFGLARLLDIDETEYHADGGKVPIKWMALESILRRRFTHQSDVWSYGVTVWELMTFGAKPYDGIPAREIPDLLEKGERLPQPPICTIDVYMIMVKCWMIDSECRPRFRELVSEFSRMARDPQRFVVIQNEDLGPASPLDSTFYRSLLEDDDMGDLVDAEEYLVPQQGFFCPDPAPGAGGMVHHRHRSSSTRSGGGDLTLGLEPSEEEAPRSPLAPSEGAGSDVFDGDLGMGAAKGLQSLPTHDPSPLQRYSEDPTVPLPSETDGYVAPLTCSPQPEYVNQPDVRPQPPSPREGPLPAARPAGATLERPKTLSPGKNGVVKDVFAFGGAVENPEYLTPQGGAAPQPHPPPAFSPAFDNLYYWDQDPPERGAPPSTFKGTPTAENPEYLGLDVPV

Q: For Ac-ARIYPTNGYTRY-NH2, which Kd is on record?
A: The Kd was 446 nM.

Q: How did the Kd turn out when Ac-CQQHYTTPPTFG-NH2 was run?
A: The Kd was 174 nM.

Q: How did the Activity turn out when Ac-CSRWGGDGFYAMDYWG-NH2 was run?
A: Its Activity is “inactive”.

Q: Ac-QDVNTAVAW-NH2 was tested. Which Kd did it give?
A: Its Kd is 10.2 nM.
